From patent US4873081A, “Percutaneous absorption preparation” (priority 1986, dated 1989)
Counter-ions that a name gives are not always drawn.

How the values were obtained:
in vivo = assay: in vivo; parameters: species or system male Wistar rats; conditions: rat, topical or ocular; for AUC(0-t) at 36 h: AUC (0-36 hours)
Excerpt: In Table 1, the results obtained are shown. The calcium salts of the anti-inflammatory drugs in the ointment were absorbed to a much greater degree than the indomethacin (Rp. 1).

[1] = tested on: carrageenan-induced paw edema; assay: Carrageenan-induced edema in hindpaw of rat; format: in vivo, male Wistar rats; conditions: 0.14 g gel ointment on abdominal skin 6 h before carrageenan
Protocol: (§1) Experimental carrageenan edema was induced in groups of six male Wistar rats weighing 150-160 g. […] The gel without the drug was similarly applied to the control group. The treated area was immediately covered by aluminum foil and adhesive tape. Six hours later, 1% carrageenan solution was injected subcutaneously into the sole of the right hindpaw. The volumes of both hindpaw were measured hourly using a plethysmometer and the edema volume was calculated from the difference between the injected and non-injected paws. FIG. 3 indicates the effect on the carrageenan-induced paw edema of these ointments applied topically.

[2] = Absorption of the active ingredient from other bases or with other promoters; conditions: calcium thioglycolate as absorption promoter
[3] = Plasma concentration of indomethacin during multiple percutaneous dosing of ointment to rats; format: in vivo, male Wistar rats; conditions: 0.14 g per 1.0×1.0 cm
Protocol: The hair of the abdominal area of male Wistar rats weighing 250-300 g was removed in the same manner as described in Example 6. […] The rats were fixed in the Bollman cages for 24 hours. The ointment remained in contact with the skin for 24 hours, and then the unabsorbed ointment was wiped off. Subsequently, second and third applications of the ointment (0.14 g, 1.0×1.0 cm area) were made at different positions on the abdomen similar to the first application. The drug concentrations were determined by the same procedure as described in Example 6. FIG. 2 depicts the plasma indomethacin concentrations after the topical application of these ointments.

shaved back skin = tested on: shaved back skin; parameters: species or system male rabbits; conditions: rabbit, in vivo
Protocol: The evaluation of skin reactions was done by the erythema and edema scores 24 and 72 hours after application.

[4] = tested on: adjuvant arthritis induced with M. butyricum; assay: Adjuvant arthritis induced with M. butyricum; format: in vivo, male Wistar rats; conditions: for Inhibition: adjuvant arthritis; for Inhibition / Foot volume: day 16, mean ± S.D. of 6 rats; for Foot volume: 0.14 g gel ointment every other day from day 11 to 15, *p <0.05 vs control
Protocol: as §1
M. butyricum (Difco Lab., USA) suspended in paraffin oil was injected into the sole of right hindpaw of male Wistar rats weighing 150-160 g. […] The edema volumes were calculated by measuring the volumes of both hindpaws on day 16, according to the same procedure as described in Example 9.

Cc1cccc(Nc2ccccc2C(=O)O)c1C [Mefenamate calcium, Calcium mefenamate]
AUC(0-t) at 36 h (in vivo): 470 ± 40.5 µg·h/mL

O=C(O)COc1nn(Cc2ccccc2)c2ccccc12 [Bendazac calcium]
AUC(0-t) at 36 h (in vivo): 460 ± 31.5 µg·h/mL

COc1ccc2c(c1)c(CC(=O)O)c(C)n2C(=O)c1ccc(Cl)cc1 [Indomethacin calcium, Calcium salt of indomethacin]
Bioavailability (in vivo): 70.3 ± 4.1% | AUC (0-36 hours) (in vivo): 473.4 ± 16.5 µg·h/mL | inhibitory effect on carrageenan-induced paw edema [1]: significantly higher inhibitory effect | absorption of the active ingredient on addition of calcium thioglycolate [2]: dramatically decrease the absorption | absorption through the skin compared with indomethacin ([3]; three 24 h applications): readily and quickly absorbed through the skin compared with indomethacin | plasma levels after application of the gel ointment ([3]; multiple dosing, vs indomethacin ointment): much higher plasma levels | erythema produced by the ointment (shaved back skin): only slight erythema | irritation produced by the ointment (shaved back skin): nearly negligible | Inhibition [4]: 51.0 ± 7.6% | inhibitory effect on adjuvant arthritis ([4]; compared with indomethacin ointment): significant inhibitory effect, to the same extent as the indomethacin ointment | Foot volume [4]: 2.38 ± 0.12 mL

O=C(O)c1ccccc1Nc1cccc(C(F)(F)F)c1 [Flufenamate calcium]
AUC(0-t) at 36 h (in vivo): 463 ± 18.9 µg·h/mL

COc1ccc2c(c1)c(CC(=O)O)c(C)n2C(=O)c1ccc(Cl)cc1 [Indomethacin, indomethacin, reference compound]
Bioavailability (in vivo): 7.3 ± 1.4% | AUC (0-36 hours) (in vivo): 50.4 ± 7.8 µg·h/mL | erythema produced by the ointment (shaved back skin): only slight erythema | irritation produced by the ointment (shaved back skin): nearly negligible | Inhibition [4]: 55.4 ± 10.5% | Foot volume [4]: 2.32 ± 0.16 mL

O=C(O)Cc1ccccc1Nc1c(Cl)cccc1Cl [Diclofenac calcium]
AUC(0-t) at 36 h (in vivo): 465 ± 32.4 µg·h/mL
